The conditions of series [1]: co-crystallization of quercetin with caffeine, mass ratio 2:1; cited from earlier work.
The conditions of series [2]: co-crystallization of quercetin with caffeine, mass ratio 2:1; cited from earlier work. The source holds these as a separate data set.
Series [3] in a line: Modified Reb D solubility in water. It is filed as physicochemical.

For `O=c1c(O)c(-c2ccc(O)c(O)c2)oc2cc(O)cc(O)c12` [quercetin], the solubility increase in series [1] is on record as 14 fold. The bioavailability increase in series [2] is recorded as 10 fold.
As for `C=C1C[C@@]23CC[C@H]4[C@@](C)(CCC[C@@]4(C)C(=O)O[C@@H]4O[C@H](CO)[C@@H](O)[C@H](O)[C@H]4O[C@@H]4O[C@H](CO)[C@@H](O)[C@H](O)[C@H]4O)[C@@H]2CC[C@]1(O[C@@H]1O[C@H](CO)[C@@H](O)[C@H](O[C@@H]2O[C@H](CO)[C@@H](O)[C@H](O)[C@H]2O)[C@H]1O[C@@H]1O[C@H](CO)[C@@H](O)[C@H](O)[C@H]1O)C3` [Control, Rebaudioside D], the “Solubility (23° C.) (ppm)” value in series [3] (in water, 23° C.) is on record as 350 ppm. In series [3] (spray dried without enhancer or stabilizer), the “solubility of the Reb D after spray drying the clear Reb D solution to a fine powder” value is reported as 1500 ppm. The solubility in water in series [3] (water at 23° C. / room temperature, untreated Reb D or powders as worded) was 300 ppm. The “maximum solubility in heated water” value in series [3] (water heated above 70° C., typically 80 to 100° C.) was determined as 2.5 wt %.

The values above are taken from patent US9060537B2, “Method for enhancing rebaudioside D solubility in water” (PEPSICO, INC., priority 2012, dated 2015).
